Assay results: BindingDB's records for doi:10.1016/s0960-894x(01)00278-5 (Pharmacia, 2001)
pKi: −log10 of the molar value.

Test: Binding affinity towards guinea pig Opioid receptor kappa 1 using radioligand [3H]U69,593

SMILES	pKi
CN(C)C(=O)c1ccc2c3c1OC1C(O)C=C[C@H]4[C@@H](C2)N(C)CC[C@]314 (stereo partly drawn) [4,10N,10N-trimethyl-14-hydroxy-(1S,5R,17R)-12-oxa-4-azapentacyclo[9.6.1.01,13.05,17.07,18]octadeca-7,9,11(18),15-tetraene-10-carboxamide]	< 5.00
CNC(=O)c1ccc2c3c1OC1C(O)C=C[C@H]4[C@@H](C2)N(C)CC[C@]314 (stereo partly drawn) [4,10N-dimethyl-14-hydroxy-(1S,5R,17R)-12-oxa-4-azapentacyclo[9.6.1.01,13.05,17.07,18]octadeca-7,9,11(18),15-tetraene-10-carboxamide]	< 5.00
CN1CC[C@]23c4c5ccc(C(N)=O)c4OC2C(O)C=C[C@H]3[C@H]1C5 (stereo partly drawn) [14-hydroxy-4-methyl-(1S,5R,17R)-12-oxa-4-azapentacyclo[9.6.1.01,13.05,17.07,18]octadeca-7,9,11(18),15-tetraene-10-carboxamide]	5.72
